The results in this text go back to patent publication US20160113931A1, “Method of treating and/or preventing neurodegenerative diseases” (University of Macau, priority 2014, published 2016).

SMILES strings stand for the structures. “Also recorded” adds a separate entry of the source.

One test has as its system SH-SY5Y cells. The test can be described thus: MPP+-induced mitochondrial membrane potential loss (JC-1 assay). The test is classed as cell-based, human. The conditions noted are these: 2 h pre-treatment; for mitochondrial membrane potential (Δφm) compared to the control group: 2 mM MPP+, MPP+ alone 51%. The protocol: (FIG. 6A) Δψm was determined by the JC-1 assay.
JC-1 dye was used to monitor mitochondrial integrity. In brief, SH-SY5Y cells were seeded into black 96-well plates (5×10^3 cells/well). After treatment, the cells were incubated with JC-1 (10 μg/mL in medium) at 37° C. for 15 min and then washed twice with PBS. For signal quantification, the intensity of red fluorescence (excitation 560 nm, emission 595 nm) and green fluorescence (excitation 485 nm, emission 535 nm) were determined using a SpectraMax M5. Mitochondrial membrane potential (Δφm) was calculated as the ratio of JC-1 red/green fluorescence intensity and the value was normalized to the control group.
Loss of mitochondrial membrane potential and apoptotic nuclei were hallmarks for early and late stage of apoptosis. To determine whether BHDPC could reduce MPP^+-induced mitochondrial membrane potential (Δφm) loss, the Δφm in SH-SY5Y cells was assessed by analyzing the red/green fluorescent intensity ratio of JC-1 staining (FIG. 6A).

For test [1], the system named is oligodendroglial progenitor cells (OPCs). The test can be described thus: OPC proliferation (MTT assay). The conditions noted are these: Rattus norvegicus, 48 h, read-out: OPC viability compared with the control group. The test is classed as cell-based, rat. As for the experimental part: (§1) FIGS. 10A, 10B and 10C show the effects of BHDPC in oligodendroglial progenitor cells (OPCs) proliferation. OPCs were incubated with the drugs at indicated concentrations in proliferation medium for 2 days. (FIG. 10A) The cell viability was measured by MTT assay.
(§2) The percentage of surviving cells was estimated by determining the activity of mitochondrial dehydrogenases with 3(4,5-dimethylthiazol-2-yl)-2,5-diphenyltetrazolium bromide (MTT) assay. After drug treatment, cells were incubated at 37° C. for 4 h in 0.5 mg/mL MTT solution. The medium was then removed, and 100 μL of DMSO was added to each well to dissolve the violet formazan crystals. The absorbance of the samples was measured at a wavelength of 570 nm with 655 nm as a reference wavelength. All values were normalized to the control groups.
Purified OPC cultures were prepared as described. In brief, primary rat mixed glial cell cultures were isolated from whole brains of postnatal day (P) 2 rats, dissociated into single cells, and cultured into poly-D-lysine (PDL) coated T75 tissue culture flasks. Plating medium consisted of Dulbecco's modified Eagle's medium (DMEM, Invitrogen, Carlsbad, Calif.) supplemented with 10% fetal bovine serum (FBS; Invitrogen, Carlsbad, Calif.), […]. Tissue cultures were maintained at 37° C. in a humidified 5% CO2 incubator, and medium was exchanged every 3 days. Once confluent (after 10-15 days), microglia were separated by mechanical shaking of flasks on a rotary shaker for […] at 250 rpm and removed. After addition of fresh medium, the remaining cells were allowed to recover overnight before repeating the mechanical shaking for an additional 16 h at 200 rpm to isolate OPCs. To ensure purity of OPC cultures, the isolated cells were transferred to a tissue culture dish, from which the loosely attached OPCs were detached by gentle shaking after 60 min, leaving behind attached microglia and astrocytes. OPCs were plated onto PDL coated 96 well plates using an automated dispenser and allowed to adhere to the plates over the next 1-2 days.
To test the effect of BHDPC on primary OPC culture, OPCs were treated with BHDPC for 48 h and the cell viability was determined using MTT assay. […] The proliferation activity of BHDPC was also confirmed by the EdU incorporative assay.
For orientation: Formazan colour is commonly taken as a measure of viable cells.

For test [2] the test system is unchanged. The test can be described thus: OPC proliferation (EdU incorporation assay and Ki67 immunostaining). Type of test: cell-based, rat. The settings on record: 2 days. The protocol: as §1
Purified OPC cultures were prepared as described. In brief, primary rat mixed glial cell cultures were isolated from whole brains of postnatal day (P) 2 rats, dissociated into single cells, and cultured into poly-D-lysine (PDL) coated T75 tissue culture flasks. Plating medium consisted of Dulbecco's modified Eagle's medium (DMEM, Invitrogen, Carlsbad, Calif.) supplemented with 10% fetal bovine serum (FBS; Invitrogen, Carlsbad, Calif.), […]. Tissue cultures were maintained at 37° C. in a humidified 5% CO2 incubator, and medium was exchanged every 3 days. Once confluent (after 10-15 days), microglia were separated by mechanical shaking of flasks on a rotary shaker for […] at 250 rpm and removed. […]
OPC was incubated with BHDPC or 0.1% DMSO in the proliferation medium for two days. […] Photographs were captured by fluorescence microscope.
To test the effect of BHDPC on primary OPC culture, OPCs were treated with BHDPC for 48 h and the cell viability was determined using MTT assay. […]

The test system is the same in test [3]. The test can be described thus: Hydrogen peroxide-induced OPC death (MTT assay). Type of test: cell-based, rat. The settings on record: 30 μM, 200 μM hydrogen peroxide 6 h. As for the experimental part: OPCs were incubated with 30 μM BHDPC or 0.1% DMSO (vehicle control) for 2 h followed by the addition or not of 200 μM H2O2 for a further 6 h (FIG. 11A) or LPS (FIG. 11B) for 24 h.
as §2
Purified OPC cultures were prepared as described. In brief, primary rat mixed glial cell cultures were isolated from whole brains of postnatal day (P) 2 rats, dissociated into single cells, and cultured into poly-D-lysine (PDL) coated T75 tissue culture flasks. Plating medium consisted of Dulbecco's modified Eagle's medium (DMEM, Invitrogen, Carlsbad, Calif.) supplemented with 10% fetal bovine serum (FBS; Invitrogen, Carlsbad, Calif.), […]. Tissue cultures were maintained at 37° C. in a humidified 5% CO2 incubator, and medium was exchanged every 3 days. […]

Another test relates to zebrafish. The test can be described thus: MPTP-induced deficit of locomotion behavior in zebrafish larvae. Type of test: in vivo, Danio rerio. The protocol: Three dpf zebrafish embryos were co-incubated with 10 μM MPTP and BHDPC at the indicated concentrations for 96 hours, and zebrafish larval co-treated with MPTP and 150 μM L-dopa was used as positive control. After treatment, zebrafish were collected to perform locomotion behavior test using Viewpoint Zebrabox system and total distances travelled in 10 min were calculated.
The AB strain of wild type zebrafish (Danio rerio) was maintained as described in the Zebrafish Handbook. Zebrafish were staged by days post fertilization […]. For breeding, groups of male and female (3:2) adult zebrafish were placed in 10-L plastic aquarium equipped with spawning nets in the evening. In the following morning, eggs were collected from the breeding group tanks. Normally developed fertilized eggs were selected under a stereomicroscope for further studies. The MPTP manipulation was performed with appropriate safety precautions and all MPTP-containing water was bleached.
In addition, MPTP markedly altered the swimming behavior of the zebrafish as a consequence of DA neuronal injury. […] BHDPC ameliorated MPTP-induced deficit of swimming behavior. At the same condition, MPTP-induced deficit of swimming behavior were rescued by positive controls, levodopa (L-dopa) (FIG. 16).

Another test deals with ROCK2 (Homo sapiens, UniProt O75116). The test is described as follows: Kinase activity assay ROCK2. Type of test: biochemical. The settings on record: read-out: ROCK 2 IC50. An excerpt: ROCK has two isoforms (ROCK1 and ROCK2) sharing the same downstream proteins. Bioassay and molecular docking are used to compare the characteristics of BHDPC on ROCK. […] Through molecular docking and molecular dynamics simulation, the interaction between the inhibitor and ROCK1 was shown in FIG. 17.
Chain of ROCK2 (O75116 whole entry, species assumed, canonical isoform): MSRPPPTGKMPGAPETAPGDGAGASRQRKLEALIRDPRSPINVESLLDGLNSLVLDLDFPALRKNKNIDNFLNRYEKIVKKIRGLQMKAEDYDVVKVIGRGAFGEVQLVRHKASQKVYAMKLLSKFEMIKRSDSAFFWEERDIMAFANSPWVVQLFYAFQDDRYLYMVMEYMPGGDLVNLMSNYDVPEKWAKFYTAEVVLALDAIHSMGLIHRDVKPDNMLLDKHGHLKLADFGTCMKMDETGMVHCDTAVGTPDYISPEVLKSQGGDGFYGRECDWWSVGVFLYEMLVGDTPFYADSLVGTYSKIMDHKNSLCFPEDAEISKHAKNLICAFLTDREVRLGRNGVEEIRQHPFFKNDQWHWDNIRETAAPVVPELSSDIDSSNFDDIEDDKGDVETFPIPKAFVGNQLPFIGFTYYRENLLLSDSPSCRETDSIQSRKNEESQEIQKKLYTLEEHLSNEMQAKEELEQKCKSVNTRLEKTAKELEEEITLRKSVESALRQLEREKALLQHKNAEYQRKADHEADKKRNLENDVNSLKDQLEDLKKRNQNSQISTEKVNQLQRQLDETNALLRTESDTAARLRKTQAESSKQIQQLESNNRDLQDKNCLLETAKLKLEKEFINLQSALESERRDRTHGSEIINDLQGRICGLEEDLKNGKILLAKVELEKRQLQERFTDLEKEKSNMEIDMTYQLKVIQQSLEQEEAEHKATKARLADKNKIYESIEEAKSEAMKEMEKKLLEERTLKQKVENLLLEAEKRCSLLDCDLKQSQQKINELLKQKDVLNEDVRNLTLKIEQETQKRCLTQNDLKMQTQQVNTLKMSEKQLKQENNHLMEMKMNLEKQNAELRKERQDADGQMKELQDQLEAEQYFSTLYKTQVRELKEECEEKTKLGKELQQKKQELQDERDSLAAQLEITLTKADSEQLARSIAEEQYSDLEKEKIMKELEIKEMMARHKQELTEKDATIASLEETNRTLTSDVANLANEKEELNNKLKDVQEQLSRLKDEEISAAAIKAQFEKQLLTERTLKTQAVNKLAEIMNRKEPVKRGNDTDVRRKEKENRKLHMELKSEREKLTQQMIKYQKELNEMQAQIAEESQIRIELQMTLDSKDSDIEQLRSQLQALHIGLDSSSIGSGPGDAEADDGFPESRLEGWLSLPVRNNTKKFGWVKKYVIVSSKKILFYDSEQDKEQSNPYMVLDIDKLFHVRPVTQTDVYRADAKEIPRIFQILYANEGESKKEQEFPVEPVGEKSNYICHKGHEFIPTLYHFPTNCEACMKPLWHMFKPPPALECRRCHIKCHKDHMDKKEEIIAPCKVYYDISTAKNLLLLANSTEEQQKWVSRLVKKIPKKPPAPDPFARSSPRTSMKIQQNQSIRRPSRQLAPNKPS

Usually viability stands for a read-out of living cells in per cent, often relative to untreated cells. The term IC50 denotes the concentration at which inhibition is half-maximal. In the case of `COc1cc(C2C(C(=O)OCc3ccccc3)=C(C)Nc3nnnn32)ccc1O` (centres unmarked) [BHDPC, benzyl 7-(4-hydroxy-3-methoxyphenyl)-5-methyl-4,7-dihydrotetrazolo[1,5-a]pyrimidine-6-carboxylate], the figures for the “mitochondrial membrane potential (Δφm) compared to the control group” value in the test on SH-SY5Y cells (3 μM), with SH-SY5Y cells (10 μM) and in the test with SH-SY5Y cells (30 μM) were 53%, 64% and 75%, respectively. Moreover, the “MPP+-induced mitochondrial membrane potential (Δψm) loss, in words” value in the test with SH-SY5Y cells (30 μM, 2 mM MPP+ 36 h) was “attenuated”. The viability at 1 µM in test [1] (1 μM) was found to be 100%. In test [1] (3 μM), the viability at 3 µM is 106%. Moreover, the viability at 10 µM in test [1] (10 μM) worked out at 127%. Moreover, the viability at 30 µM in test [1] (30 μM) was 152%. Further, the “ratio of EdU+/oligo2 cells” value in test [2] (30 μM) was “increased”. For the same compound, the “ratio of Ki67+/oligo2 cells” value in test [2] was “increased”. For the same compound, the “hydrogen peroxide-induced cell death” value in test [3] was “dramatically attenuated”. Besides, the “swimming behaviour of normal zebrafish larvae” value in the test on zebrafish (BHDPC treatment alone) is “notably altered”. Also, the “MPTP-induced deficit of swimming behavior (total distance travelled in 10 min)” value in the test with zebrafish (co-incubated with 10 μM MPTP, 96 hours, 3 dpf) is given as “ameliorated; also recorded: attenuated”. In addition, the IC50 at ROCK2 turned out to be 408 µM.
